This passage reports Solubility s results from patent US6680003B2, “Chiral doping agents with variable spiral pitch induction and application thereof to a reflective color display” (Asulab S.A., priority 2000, dated 2004).

This series is described as follows: Solubility in a nematic.

In turn, “2-[4′-(6-Acryloyloxyhexyloxy)-2′.5′-methylazophenyl-4-carbonyloy]—5-[4-(6-Acryloyloxyhexyloxy)benzoyl]-1.4:3.6-D-glucitol [Compound 209sf]” came in with a Solubility s of 4.0% < s % mass.
